Test results: patent US5688830A, “Treatment of neuropathic pain” (Syntex (U.S.A.) Inc., priority 1997, dated 1997)
Read-outs that look alike come from different tables or passages of the source.

What was measured:
[1] = tested on: voltage-gated sodium channels ([3H]BTX binding, rat cortex); test: [3H]BTX binding assay, rat cortex membranes
Protocol: The following assays characterize the interaction of the compounds of Formula I with ligand binding sites on voltage-gated sodium channels.
Frozen tissues were obtained from Pel-Freez Biologicals (Rogers, AR). Tissues were homogenized in 10 volumes of a Tris-sucrose buffer (10 mM Tris-HCl, 250 mM sucrose, pH 7.4 at 4° C.) using 10 strokes with a glass-glass, hand-held homogenizer. The homogenates were filtered through nylon mesh and then centrifuged at 1,000×g for 15 minutes. The pellets were resuspended in a Hepes buffer (50 mM Hepes, 130 mM choline chloride, 5 mM glucose, 5.4 mM KCl, pH 7.4 at 4° C.). The resuspended pellets were centrifuged at 1,000×g for 15 minutes, resuspended in a Hepes buffer (50 mM Hepes, 130 mM choline chloride, 5 mM glucose, 5.4 mM KCl, pH 7.4 at 25° C.) and, frozen at -70° C. until used in binding assays.
Nonspecific binding was defined in the presence of 1 mM veratridine. Unless otherwise specified, PbTx (0.1 μM) and LqTx (50 μg/ml) were included in the assays. Membranes were incubated for 60 minutes at 25° C. and then filtered using GF/B glass fiber filters that had been pretreated with 0.3% PEI. Filters were rinsed with 3×1 ml of ice cold 50 mM Tris-HCl (pH 7.4 at 4° C.) and the bound radioactivity was determined by scintillation counting (Packard Top-count).

cold allodynia in rats [2] = test: Cold allodynia in vivo assay (chronic constriction injury), acute studies; parameters: species or system rat; conditions: subcutaneous; for ED50: Rattus norvegicus, sc
Protocol: (§1) This assay determines the effectiveness of compounds in relieving one of the symptoms of neuropathic pain produced by unilateral mononeuropathy, namely cold allodynia. Unilateral mononeuropathy was produced in rats using the Chronic Constriction Injury model performed essentially as described by Bennet and Xie, Pain, (1988) 33:87-107. Briefly, the rats were anesthetized with an intraperitoneal dose of pentobarbital sodium (65 mg/kg) with additional doses of anesthetic given as needed. The lateral aspect of each rat's hind limb was shaved and scrubbed with Novasan. Using aseptic technique, an incision was made on the lateral aspect of the hind limb at the mid-thigh level. The biceps femoris was bluntly dissected to expose the sciatic nerve. On the right hind limb of each rat, four loosely tied ligatures were made around the sciatic nerve approximately 1-2 millimeters apart. On the left side of each rat, an identical dissection was performed except that the sciatic nerve was not ligated. The muscle was closed with a continuous suture pattern, and the skin was closed with wound clips. Each rat was placed individually into a plexiglass chamber with a metal plate 6 cm from the bottom. This chamber was filled with ice water to a depth of 2.5 cm above the metal plate, with the temperature of the bath maintained at 0° C. throughout the experiment. A timer was started, and the rat's response latency was measured to the nearest tenth of a second. A "response" was defined as a rapid withdrawal of the right ligated hindpaw completely out of the water while the animal was stationary and not pivoting. An exaggerated limp while the animal was walking was not scored as a response. Maximum immersion time was 20 seconds with a 20 minute interval between trials. The screening criteria were 1) the average of two trials was less than or equal to 13 seconds, and 2) there was consistency across the two trial scores. Animals were screened for hypersensitivity to cold on post-surgery days 4 through 10, and selected for inclusion in dose-response studies based on the criteria described above. The pre-dose screening values were used as the animal's baseline cold allodynia scores. For acute studies, the animals received either subcutaneous or oral injections and were tested for cold allodynia at 1, 3, and sometimes 5 hours post-dose. The selection of doses was similar to that of Example 12C.

cold allodynia in rats [3] = test: Cold allodynia in vivo assay (chronic constriction injury), chronic studies; parameters: species or system rat; conditions: for anti-allodynia after chronic dosing: subcutaneous, 5 days of twice daily dosing
Protocol: as §1, with “chronic” for “acute”, “animals received subcutaneous or oral injections twice daily for 4 days and once on day 5. The animals were tested for allodynia on day 1 at 1, 3 and 5 hours following the 8 am dose, and at 5 hours following the 8 am dose on days 3 and 5. Two days later, the animals were tested for cold allodynia to assess whether there was a wash-out of the drug being tested. Following this screening for cold allodynia, the animals in two of the three chronic studies” for “animals”, “of the drug” for “and were tested for cold allodynia”, “a dose previously shown” for “1, 3, and sometimes 5 hours post-dose. The selection of doses was similar”, “produce significant anti-allodynic effects acutely. […]” for “that of Example 12C.”

[4] = Adverse effects / gross behavior on dosing; format: in vivo, rat
Protocol: The doses for the acute and chronic studies were selected on the basis of prior assessment of the acute effects on the test compounds on the gross behavior in normal rats. Briefly, the rats were weighed and grouped into cages, dosed with the test compound, and observed continuously for changes in behavior. […] Pinna and corneal reflexes were tested by using a piece of natural hair from a brush that is attached to a glass rod. The righting reflexes were tested by placing the rat flat on its back, and recording the time it takes for the animal to right itself onto all four legs. The posture and gait were assessed by placing the rat on the floor.
The selection of doses was similar to that of Example 12C.

[5] = Metabolism to Formula II / plasma levels of Formula II after oral administration; format: in vivo
[6] = cold allodynia, acute, 1 hr, read-out: ED50 1 hr
[7] = cold allodynia, acute, in words
[8] = subcutaneous, cold allodynia acute study

CCN[C@H](C)COc1c(C)cccc1C [Formula I (R)-, (R)-[2-(2,6-dimethylphenoxy)-1-methylethyl]-ethylamine]
potency of (R)- versus (S)-enantiomer in inhibiting [3H]BTX binding ([1]; rat brain cortex membranes): no difference in the potencies | ED50 (cold allodynia in rats [2]; [6]): 37 mg/kg | ED50 (cold allodynia in rats [2]; cold allodynia, acute, 3 hr, read-out: ED50 3 hr): 23.4 mg/kg | Emax 1 hr (cold allodynia in rats [2]; cold allodynia, acute, 1 hr): 91% | Emax 3 hr (cold allodynia in rats [2]; cold allodynia, acute, 3 hr): 87% | duration of action in vivo compared with racemate, (S)-enantiomer, or II (cold allodynia in rats [2]; [7]): longer duration of action | maximal analgesic activity (Emax) compared with III or IV (cold allodynia in rats [2]; [7]): significantly greater maximal analgesic activity | maximal analgesic activity compared with racemate, (S)-enantiomer, or II (cold allodynia in rats [2]; [7]): greater maximal analgesic activity | potency (ED50) comparison of (R)-isomers (cold allodynia in rats [2]; [7]): comparable potency | anti-allodynic effect after chronic oral dosing (cold allodynia in rats [3]; oral, chronic, (R)-enantiomer 10 and 20 mg/kg, sub-threshold): as robust an anti-allodynic effect as an acute dose of compound I that is 10 fold higher | anti-allodynia after chronic dosing (cold allodynia in rats [3]): significant levels of anti-allodynia | doses with adverse side effects ([4]; oral administration, mechanical allodynia study): ≥ 300 mg/kg | safety profile ([4]; oral administration, vs (S)-enantiomer): cleaner safety profile | doses with adverse side effects / behavioral problems [4, 8]: ≥ 300 mg/kg | safety profile ([4]; subcutaneous, cold allodynia acute study, vs racemate, (S)-enantiomer, or II): cleaner safety profile | plasma level of Formula II after oral (R)-enantiomer of Formula I, less than after acute administration of Formula II itself ([5]; oral administration, plasma): 5-10 fold less

CCNC(C)COc1c(C)cccc1C (racemic) [Formula I racemate, [2-(2,6-dimethylphenoxy)-1-methylethyl]-ethylamine]
potency in rat cortex greater than in rat heart or rat dorsal root ganglion ([1]; [3H]BTX binding, rat cortex vs rat heart or dorsal root ganglion): approximately 10 fold | inhibition of [3H]BTX binding ([1]; rat cortex membranes): inhibited | ED50 (cold allodynia in rats [2]; [6]): 15.7 mg/kg | Emax 1 hr (cold allodynia in rats [2]; cold allodynia, acute, 1 hr): 82% | anti-allodynic effect, acute dosing (cold allodynia in rats [2]; 5 mg/kg, 1, 3 or 5 hours post-dose): no significant anti-allodynic effects | anti-allodynia after chronic dosing (cold allodynia in rats [3]): significant levels of anti-allodynia | doses with adverse side effects / behavioral problems [4, 8]: higher than 60 mg/kg | adverse side effects observed ([4]; subcutaneous, cold allodynia acute study, doses higher than 60 mg/kg): convulsions and immobility | metabolism to the compound of Formula II ([5]; oral, mammal): metabolized to some extent to the compound of Formula II
